Data as given in patent US20110008471A1, “SYNERGISTIC ANTIPARASITIC COMPOSITIONS AND SCREENING METHODS” (TyraTech, Inc., priority 2007, published 2011).

Experiments:
Tyramine receptor (TyrR) [1] = biological target: T1, Tyramine receptor (TyrR) (Drosophila melanogaster, UniProt P22270); test: Intracellular Ca2+ level in cells expressing TyrR; assay type: cell-based
T1 construct: expressed in transfected cells; host or cells: model cells in culture
T1 sequence (P22270 27-601): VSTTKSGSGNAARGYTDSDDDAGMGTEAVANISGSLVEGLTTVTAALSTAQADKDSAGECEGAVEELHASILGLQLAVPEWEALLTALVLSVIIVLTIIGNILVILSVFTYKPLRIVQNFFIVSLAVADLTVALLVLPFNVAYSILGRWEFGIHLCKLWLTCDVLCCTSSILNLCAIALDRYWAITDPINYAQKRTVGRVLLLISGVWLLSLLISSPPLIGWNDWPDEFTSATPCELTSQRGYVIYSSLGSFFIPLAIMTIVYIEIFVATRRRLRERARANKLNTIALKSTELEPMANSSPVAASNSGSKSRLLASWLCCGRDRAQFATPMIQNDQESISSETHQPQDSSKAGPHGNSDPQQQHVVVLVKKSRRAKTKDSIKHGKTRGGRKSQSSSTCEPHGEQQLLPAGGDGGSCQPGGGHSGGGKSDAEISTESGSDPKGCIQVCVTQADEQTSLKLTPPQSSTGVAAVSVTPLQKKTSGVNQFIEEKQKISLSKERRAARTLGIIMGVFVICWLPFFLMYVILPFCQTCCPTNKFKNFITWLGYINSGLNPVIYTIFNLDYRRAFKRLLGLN

Tyramine receptor (TyrR) [2] = biological target: T1, Tyramine receptor (TyrR); test: Tyramine receptor binding affinity in cells expressing TyrR
Experimental: In some embodiments, a method of selecting a composition for use in treating a parasitic infection includes the following. A cell expressing a tyramine receptor is provided and is contacted with test compounds. The receptor binding affinity of the compounds is measured. At least one parameter selected from the following parameters is measured: intracellular cAMP level, and intracellular Ca^2+ level. A first compound for the composition is identified, which is capable of altering at least one of the parameters, and which has a high receptor binding affinity for the tyramine receptor; and a second compound for the composition is identified, which is capable of altering at least one of the parameters, and which has a low receptor binding affinity for the tyramine receptor. A composition is selected that includes the first and second compounds.
As used herein, the term “receptor binding affinity” refers to an interaction between a composition or component, e.g., compound, and a receptor binding site. The interaction between a composition or component, and the receptor binding site, can be identified as specific or non-specific. In some embodiments, the specificity of an interaction between a composition or component, and a TyrR binding site, can be determined in the following manner. A wild type fly (Drosophila melanogaster) and a mutant fly are provided, where the mutant fly lacks a TyrR. The wild type and mutant flies are exposed to a composition or component of interest. […] If the exposure negatively affects the wild type fly and the mutant fly, then the treatment with the composition or component of interest can be said to be non-specific for the TyrR.
A “high receptor binding affinity” can be a specific interaction between a composition or component, and the receptor binding site.
A “low receptor binding affinity” can be a non-specific interaction between a composition or component, and the receptor binding site. […] In some embodiments, a low receptor binding affinity is found when the effective concentration at which tyramine binding is inhibited by 50% (EC50) is greater than about 500 μM, 625 μM, 750 μM, 875 μM, 1000 μM, 1125 μM, or 1250 μM.
A receptor gene encoding the Tyramine receptor (TyrR) has been isolated from the American cockroach, fruit fly, mosquito, and other organisms. The present subject matter provides methods of utilizing the TyrR protein expressed in cells to screen for compounds useful for treating parasitic infections.
(§1) In the present Example, the genes encoding TyrR were incorporated into model cells in culture that mimic receptors in insects. The screening process uses the cultured cells in combination with [Ca^2+]i and [cAMP]i measuring assays to quantitatively determine effectiveness of test compound to treat parasitic infections. The screening process allows for identification of compounds that produce highly efficacious anti-parasitic compositions.
(§2) The assay steps are as follows. A cell expressing a tyramine receptor is contacted with a test compound and the receptor binding affinity of the test compound is measured. Cells which can be used include, for example, HEK293 cells, COS cells, Drosophila Schneider or S2 cells, SF9, SF21, T.ni cells, or the like. cAMP and/or Ca^2+ levels within the cell are also monitored and any changes from contacting the test compound with the cell are noted for each compound tested. […] A composition for use in treating a parasitic formulation can then be selected that includes a plurality of the identified compounds. In particular, the composition can comprise at least one compound identified as having a high receptor binding affinity for the tyramine receptor as well as an ability to effect change in cAMP and/or Ca^2+ levels within the cell and at least one additional compound identified as having a low receptor binding affinity for the tyramine receptor as well as an ability to effect change in cAMP and/or Ca^2+ levels within the cell.

Tyramine receptor (TyrR) [3] = biological target: T1, Tyramine receptor (TyrR); test: Intracellular cAMP level in cells expressing TyrR; assay type: cell-based
Text: as §1, §2

H. nana = test: Anti-parasitic effect against H. nana in vivo in infected Swiss albino mice (egg count, cure rate); parameters: species or system Hymenolepsis nana; settings: for Egg Count (X ± SD), Pre Treatment (Base Line Data): infected mice, before 400 mg/kg oral daily for 5 days;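 for all read-outs here: fecal egg counts per mouse in groups of 15, controls got soybean oil vehicle alone, cure judged 3 days after final dose by egg reduction and no adult intestinal worms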
[4] = 100 mg/kg oral daily for 5 days
[5] = Tested dose 100 mg/kg b.w. orally daily for 5 successive days
[6] = 400 mg/kg oral daily for 5 days
[7] = 3 Days after last dose, 400 mg/kg oral daily for 5 days

Structure (SMILES) | Affects Intracellular Ca^2+ (Yes or No) (Tyramine receptor (TyrR) [1]) | Tyramine Receptor Binding Affinity (High or Low) (Tyramine receptor (TyrR) [2]) | Affects Intracellular cAMP (Yes or No) (Tyramine receptor (TyrR) [3]) | also measured
CCC(C)(O)CCCC(C)C (stereo not shown) [tetrahydrolinalool] | Yes | High | Yes | –
C/C=C/c1ccc(OC)cc1 [anethole] | Yes | Low | Yes | –
CC1=CCC2CC1C2(C)C (stereo not drawn) [α-pinene] | No | Low | No | Cure rate (%) (H. nana; [4]): 25.0%; Cure rate (%) (H. nana; [5]): 25.0%
COc1cc(C=O)ccc1O [vanillin] | – | – | No | –
CC12CCC(CC1)C(C)(C)O2 [cineol] | Yes | Low | Yes | –
CC12CCC(CC1)C(C)(C)O2 [Rx6, cineol] | – | – | – | Egg Count (X ± SD), During Treatment 1st Day (H. nana; [6]): 5 ± 9.5; Egg Count (X ± SD), During Treatment 2nd Day (H. nana; [6]): 3.8 ± 14.3; Egg Count (X ± SD), During Treatment 3rd Day (H. nana; [6]): 1 ± 1.2; Egg Count (X ± SD), During Treatment 4th Day (H. nana; [6]): 1.8 ± 1.7; Egg Count (X ± SD), During Treatment 5th Day (H. nana; [6]): 1.6 ± 1.5; Egg Count (X ± SD), Post treatment 2 Days after last dose (H. nana; [6]): 2.5 ± 3.5; Cure rate (%) (H. nana; [7]): 54.5%; Positiveity rate (%) (H. nana; [7]): 45.5%; Egg Count (X ± SD), Pre Treatment (Base Line Data) (H. nana): 3.1 ± 1.2
OCC=Cc1ccccc1 [cinnamyl alcohol] | Yes | Low | No | –
C=CCc1ccc(O)c(OC)c1 [Eugenol] | Yes | Low | No | –
CC(C)=CCC/C(C)=C/CO [Rx5, geraniol] | – | – | – | Egg Count (X ± SD), During Treatment 1st Day (H. nana; [6]): 14 ± 13.9; Egg Count (X ± SD), During Treatment 2nd Day (H. nana; [6]): 1.4 ± 2.1; Egg Count (X ± SD), During Treatment 3rd Day (H. nana; [6]): 4.1 ± 9.6; Egg Count (X ± SD), During Treatment 4th Day (H. nana; [6]): 2.6 ± 7.4; Egg Count (X ± SD), During Treatment 5th Day (H. nana; [6]): 2.3 ± 3.6; Egg Count (X ± SD), Post treatment 2 Days after last dose (H. nana; [6]): 0.5 ± 0.9; Cure rate (%) (H. nana; [7]): 66.6%; Positiveity rate (%) (H. nana; [7]): 33.4%; cure rate (H. nana; H. nana infected mice, 400 mg/kg body weight orally daily for 5 successive days, 3rd day after last dose): 66.6%; Egg Count (X ± SD), Pre Treatment (Base Line Data) (H. nana): 3 ± 1; Worms absent or dead in mice (H. nana; treated for 5 consecutive days, 400 mg/kg, post treatment dissection): 67%
Cc1ccc(C(C)C)c(O)c1 [Rx11, thymol] | Yes | High | No | Cure rate (%) (H. nana; [4]): 33.3%; Cure rate (%) (H. nana; [5]): 33.3%
CC(C)=CCC/C(C)=C/CO [geraniol] | Yes | High | Yes | –
Cc1ccc(C(C)C)cc1 [Rx10, p-cymene] | Yes | Low | Yes | tyramine receptor binding affinity (Tyramine receptor (TyrR) [2]): low (a low receptor binding affinity is found when the equilibrium dissociation constant (Kd) is greater than about 100 nM); Cure rate (%) (H. nana; [4]): 13.3%; Cure rate (%) (H. nana; [5]): 13.3%
CCC(=O)OCCc1ccccc1 [phenethyl proprionate] | No | Low | Yes | –
Cc1ccc(C(C)C)cc1O [Rx4, carvacrol] | – | – | – | Egg Count (X ± SD), During Treatment 1st Day (H. nana; [6]): 5 ± 0.6; Egg Count (X ± SD), During Treatment 2nd Day (H. nana; [6]): 2.2 ± 3.4; Egg Count (X ± SD), During Treatment 3rd Day (H. nana; [6]): 1 ± 1.9; Egg Count (X ± SD), During Treatment 4th Day (H. nana; [6]): 0.9 ± 1.2; Egg Count (X ± SD), During Treatment 5th Day (H. nana; [6]): 2 ± 2; Egg Count (X ± SD), Post treatment 2 Days after last dose (H. nana; [6]): 1.3 ± 1.1; Cure rate (%) (H. nana; [7]): 28.6%; Positiveity rate (%) (H. nana; [7]): 71.4%; Egg Count (X ± SD), Pre Treatment (Base Line Data) (H. nana): 3 ± 1
C=C(C)[C@H]1CC=C(C)CC1 [d-limonene] | Yes | – | – | –
C=CC(C)(O)CCC=C(C)C (stereo not shown) [linalool] | Yes | High | No | Cure rate (%) (H. nana; [4]): 23.3%; Cure rate (%) (H. nana; [5]): 23.3%
OCc1ccccc1 [benzyl alcohol] | No | Low | Yes | –
CCCCCCCCCCCCOS(=O)(=O)[O-].[Na+] [sodium lauryl sulfate] | No | Low | No | –
